From EPA's ToxValDB 9.5 (doi:10.2903/j.efsa.2014.3805)
Values after ≈ are worked out from the molar mass of the structure shown.

What was measured:
[1] = system: Aphidius rhopalosiphi; assay: LR50; higher = less toxic; conditions: acute; duration: 48 hours; mortality
[2] = system: Typhlodromus pyri; assay: LR50; higher = less toxic; conditions: acute; duration: 7 days; mortality
[3] = system: Colinus virginianus
[4] = system: Oncorhynchus mykiss; conditions: acute; duration: 96 hours; mortality
[5] = system: Bibionidae; conditions: chronic/long-term; duration: 28 days; body weight
[6] = system: Rattus norvegicus
[7] = system: Cyprinus carpio; conditions: acute; duration: 96 hours; mortality
[8] = system: Pimephales promelas; conditions: chronic/long-term; duration: 28 days; body weight
[9] = system: Apis mellifera; conditions: acute; oral; unspecified; mortality
[10] = system: Daphnia magna; conditions: chronic/long-term; duration: 21 days; body weight
[11] = system: Tagia sp.

Compound: COc1ccccc1N1CCS/C1=C(/C#N)Sc1cc(C(F)(F)F)ccc1F [Flutianil]
- LR50 [1]: > 480 g/ha
- LR50 [2]: > 480 g/ha
- LD50 ([3]; acute, oral, mortality): > 2250 mg/kg
- NOAEL ([3]; reproduction developmental): 186 mg/kg-day
- LC50 [4]: 0.051 µg/mL (≈ 0.12 µM)
- NOEC [5]: 396 mg/kg
- LD50 ([6]; acute, oral, mortality): > 2000 mg/kg
- NOAEL ([6]; chronic, duration: 2 years, histopathology: nonneoplastic): 81.9 mg/kg-day
- NOAEL ([6]; developmental, development): 100 mg/kg-day
- NOAEL ([6]; reproduction developmental, organ weight): 123 mg/kg-day
- LC50 [7]: > 0.87 µg/mL
- NOEC [8]: 0.000781 mg/L
- LD50 [9]: > 100 µg/piece
- NOEC [10]: 0.00697 mg/L
- LC50 ([11]; acute, duration: 14 days, mortality): > 500 mg/kg
- NOEC ([11]; chronic/long-term, duration: 8 weeks, reproduction): 6.25 mg/kg
